# Assay results reported in ChEMBL document CHEMBL1201862, “PubChem BioAssay data set” (2004).
#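 Test compounds were applied to cells in 96-well plates for 48 hours at 5 doses. At the GI50, growth is halved.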 The source made the active and inactive calls. Cut-off read from the data, not from the text of the source: active = GI50 up to about 1.1 µM and inactive = higher.
# Columns and labels:
# Experiment in all cases: DTP human tumour cell line panel, 48 h
# 786-0 = tested on: 786-0
# A498 = tested on: A498
# A549 = tested on: A549
# ACHN = tested on: ACHN
# BT-549 = tested on: BT-549
# CAKI-1 = tested on: CAKI-1
# CCRF-CEM = tested on: CCRF-CEM
# COLO 205 = tested on: COLO 205
# DU-145 = tested on: DU-145
# EKVX = tested on: EKVX
# HCC 2998 = tested on: HCC 2998
# HCT-116 = tested on: HCT-116
# HCT-15 = tested on: HCT-15
# HL-60 = tested on: HL-60
# HOP-62 = tested on: HOP-62
# HOP-92 = tested on: HOP-92
# Hs-578T = tested on: Hs-578T
# IGROV-1 = tested on: IGROV-1
# K562 = tested on: K562
# KM12 = tested on: KM12
# LOX IMVI = tested on: LOX IMVI
# M14 = tested on: M14
# MCF7 = tested on: MCF7
# MDA-MB-231 = tested on: MDA-MB-231
# MDA-MB-435 = tested on: MDA-MB-435
# MDA-N = tested on: MDA-N
# MOLT-4 = tested on: MOLT-4
# Malme-3M = tested on: Malme-3M
# NCI-H23 = tested on: NCI-H23
# NCI-H460 = tested on: NCI-H460
# NCI-H522 = tested on: NCI-H522
# OVCAR-3 = tested on: OVCAR-3
# OVCAR-4 = tested on: OVCAR-4
# OVCAR-5 = tested on: OVCAR-5
# PC-3 = tested on: PC-3
# RPMI-8226 = tested on: RPMI-8226
# RXF 393 = tested on: RXF 393
# SF-268 = tested on: SF-268
# SF-295 = tested on: SF-295
# SF-539 = tested on: SF-539
# SK-MEL-28 = tested on: SK-MEL-28
# SK-MEL-2 = tested on: SK-MEL-2
# SK-MEL-5 = tested on: SK-MEL-5
# SK-OV-3 = tested on: SK-OV-3
# SN12C = tested on: SN12C
# SNB-19 = tested on: SNB-19
# SNB-75 = tested on: SNB-75
# SR = tested on: SR
# SW-620 = tested on: SW-620
# T47D = tested on: T47D
# TK-10 = tested on: TK-10
# U-251 = tested on: U-251
# UACC-257 = tested on: UACC-257
# UACC-62 = tested on: UACC-62
# UO-31 = tested on: UO-31
# HT-29 = tested on: HT-29
# NCI-H226 = tested on: NCI-H226
# NCI/ADR-RES = tested on: NCI/ADR-RES
# OVCAR-8 = tested on: OVCAR-8
smiles,measurement,setting,value
CCOC(=O)c1cc2c(ccc3cc(C(=O)OCC)[nH]c32)[nH]1,GI50,786-0,15.6 µM (inactive)
same,GI50,A498,52 µM (inactive)
same,GI50,A549,29.7 µM (inactive)
same,GI50,ACHN,55.5 µM (inactive)
same,GI50,BT-549,52.6 µM (inactive)
same,GI50,CAKI-1,29 µM (inactive)
same,GI50,CCRF-CEM,27.8 µM (inactive)
same,GI50,COLO 205,65.3 µM (inactive)
same,GI50,DU-145,35.2 µM (inactive)
same,GI50,EKVX,> 100 µM (inactive)
same,GI50,HCC 2998,99.8 µM (inactive)
same,GI50,HCT-116,41.9 µM (inactive)
same,GI50,HCT-15,33.3 µM
same,GI50,HL-60,> 10 µM (inactive)
same,GI50,HOP-62,21.7 µM (inactive)
same,GI50,HOP-92,78.7 µM (inactive)
same,GI50,Hs-578T,17.2 µM (inactive)
same,GI50,IGROV-1,53.7 µM (inactive)
same,GI50,K562,97.1 µM (inactive)
same,GI50,KM12,95.1 µM (inactive)
same,GI50,LOX IMVI,25.6 µM (inactive)
same,GI50,M14,23 µM (inactive)
same,GI50,MCF7,50.2 µM (inactive)
same,GI50,MDA-MB-231,12.6 µM (inactive)
same,GI50,MDA-MB-435,15.3 µM (inactive)
same,GI50,MDA-N,51.5 µM (inactive)
same,GI50,MOLT-4,35.8 µM (inactive)
same,GI50,Malme-3M,43.3 µM (inactive)
same,GI50,NCI-H23,27.2 µM (inactive)
same,GI50,NCI-H460,43.9 µM (inactive)
same,GI50,NCI-H522,67.1 µM (inactive)
same,GI50,OVCAR-3,87.1 µM (inactive)
same,GI50,OVCAR-4,11.4 µM (inactive)
same,GI50,OVCAR-5,> 100 µM (inactive)
same,GI50,PC-3,> 100 µM (inactive)
same,GI50,RPMI-8226,57.1 µM (inactive)
same,GI50,RXF 393,15.8 µM (inactive)
same,GI50,SF-268,17.1 µM (inactive)
same,GI50,SF-295,60.7 µM (inactive)
same,GI50,SF-539,12.3 µM (inactive)
same,GI50,SK-MEL-28,8.36 µM (inactive)
same,GI50,SK-MEL-2,> 100 µM (inactive)
same,GI50,SK-MEL-5,25.8 µM (inactive)
same,GI50,SK-OV-3,> 100 µM (inactive)
same,GI50,SN12C,25.9 µM (inactive)
same,GI50,SNB-19,25.4 µM (inactive)
same,GI50,SNB-75,16.8 µM (inactive)
same,GI50,SR,17.5 µM (inactive)
same,GI50,SW-620,25.8 µM (inactive)
same,GI50,T47D,38 µM (inactive)
same,GI50,TK-10,50.2 µM (inactive)
same,GI50,U-251,6.15 µM (inactive)
same,GI50,UACC-257,> 100 µM (inactive)
same,GI50,UACC-62,45.9 µM (inactive)
same,GI50,UO-31,48.6 µM (inactive)
CCN(CC)C(=S)SS(=O)(=O)c1cccc(N)c1,GI50,786-0,> 100 µM (inactive)
same,GI50,A498,> 100 µM (inactive)
same,GI50,A549,> 100 µM (inactive)
same,GI50,ACHN,> 100 µM (inactive)
same,GI50,BT-549,> 100 µM (inactive)
same,GI50,CAKI-1,> 100 µM (inactive)
same,GI50,COLO 205,> 100 µM (inactive)
same,GI50,DU-145,> 100 µM (inactive)
same,GI50,EKVX,> 100 µM (inactive)
same,GI50,HCC 2998,> 100 µM (inactive)
same,GI50,HCT-116,> 100 µM (inactive)
same,GI50,HCT-15,> 100 µM
same,GI50,HOP-62,> 100 µM (inactive)
same,GI50,HOP-92,> 100 µM (inactive)
same,GI50,HT-29,> 100 µM (inactive)
same,GI50,Hs-578T,> 100 µM (inactive)
same,GI50,K562,> 100 µM (inactive)
same,GI50,KM12,> 100 µM (inactive)
same,GI50,LOX IMVI,> 100 µM (inactive)
same,GI50,M14,> 100 µM (inactive)
same,GI50,MCF7,> 100 µM (inactive)
same,GI50,MDA-MB-231,> 100 µM (inactive)
same,GI50,MDA-MB-435,> 100 µM (inactive)
same,GI50,MDA-N,> 100 µM (inactive)
same,GI50,MOLT-4,> 100 µM (inactive)
same,GI50,Malme-3M,> 100 µM (inactive)
same,GI50,NCI-H226,> 100 µM (inactive)
same,GI50,NCI-H23,> 100 µM (inactive)
same,GI50,NCI-H460,> 100 µM (inactive)
same,GI50,NCI-H522,> 100 µM (inactive)
same,GI50,NCI/ADR-RES,> 100 µM (inactive)
same,GI50,OVCAR-3,> 100 µM (inactive)
same,GI50,OVCAR-4,> 100 µM (inactive)
same,GI50,OVCAR-5,> 100 µM (inactive)
same,GI50,OVCAR-8,> 100 µM (inactive)
same,GI50,RPMI-8226,> 100 µM (inactive)
same,GI50,RXF 393,> 100 µM (inactive)
same,GI50,SF-268,> 100 µM (inactive)
same,GI50,SF-295,> 100 µM (inactive)
same,GI50,SF-539,> 100 µM (inactive)
same,GI50,SK-MEL-28,> 100 µM (inactive)
same,GI50,SK-MEL-2,> 100 µM (inactive)
same,GI50,SK-MEL-5,> 100 µM (inactive)
same,GI50,SK-OV-3,> 100 µM (inactive)
same,GI50,SN12C,> 100 µM (inactive)
same,GI50,SNB-19,> 100 µM (inactive)
same,GI50,SR,> 100 µM (inactive)
same,GI50,SW-620,> 100 µM (inactive)
same,GI50,T47D,> 100 µM (inactive)
same,GI50,TK-10,> 100 µM (inactive)
same,GI50,U-251,> 100 µM (inactive)
same,GI50,UACC-257,> 100 µM (inactive)
same,GI50,UACC-62,> 100 µM (inactive)
same,GI50,UO-31,> 100 µM (inactive)
O=C1C(NCCc2ccc(O)c([N+](=O)[O-])c2)=CC(=O)c2[nH]cnc21,GI50,786-0,47.2 µM (inactive)
same,GI50,A498,32.1 µM (inactive)
same,GI50,A549,28.6 µM (inactive)
same,GI50,ACHN,44.3 µM (inactive)
same,GI50,BT-549,> 10 µM (inactive)
same,GI50,COLO 205,43.8 µM (inactive)
same,GI50,EKVX,27.4 µM (inactive)
same,GI50,HCC 2998,51.5 µM (inactive)
same,GI50,HCT-116,24.7 µM (inactive)
same,GI50,HCT-15,39.7 µM
same,GI50,HL-60,21.2 µM (inactive)
same,GI50,HOP-62,68.4 µM (inactive)
same,GI50,HT-29,34.6 µM (inactive)
same,GI50,Hs-578T,83.9 µM (inactive)
same,GI50,IGROV-1,29.9 µM (inactive)
same,GI50,K562,18.4 µM (inactive)
same,GI50,KM12,42.9 µM (inactive)
same,GI50,LOX IMVI,15.8 µM (inactive)
same,GI50,M14,15 µM (inactive)
same,GI50,MCF7,32 µM (inactive)
same,GI50,MDA-MB-231,22.7 µM (inactive)
same,GI50,MDA-MB-435,18.6 µM (inactive)
same,GI50,MDA-N,16.3 µM (inactive)
same,GI50,MOLT-4,19.8 µM (inactive)
same,GI50,Malme-3M,5.79 µM (inactive)
same,GI50,NCI-H23,17.1 µM (inactive)
same,GI50,NCI-H460,24.8 µM (inactive)
same,GI50,NCI-H522,18.6 µM (inactive)
same,GI50,NCI/ADR-RES,> 100 µM (inactive)
same,GI50,OVCAR-3,15.2 µM (inactive)
same,GI50,OVCAR-5,33.3 µM (inactive)
same,GI50,OVCAR-8,25 µM (inactive)
same,GI50,PC-3,67 µM (inactive)
same,GI50,RPMI-8226,32.7 µM (inactive)
same,GI50,SF-295,10.5 µM (inactive)
same,GI50,SF-539,38 µM (inactive)
same,GI50,SK-MEL-28,14.3 µM (inactive)
same,GI50,SK-MEL-2,16 µM (inactive)
same,GI50,SK-MEL-5,16.2 µM (inactive)
same,GI50,SN12C,26.2 µM (inactive)
same,GI50,SNB-19,89.5 µM (inactive)
same,GI50,SW-620,44.6 µM (inactive)
same,GI50,T47D,18.5 µM (inactive)
same,GI50,TK-10,36.1 µM (inactive)
same,GI50,U-251,32.3 µM (inactive)
same,GI50,UACC-257,18.3 µM (inactive)
same,GI50,UACC-62,20.8 µM (inactive)
same,GI50,UO-31,76.9 µM (inactive)
